Entries after “also recorded” stand apart in the source; their conditions may differ. Where two headings read alike, the source gives them in different places. Where a SMILES comes first, the peptide text is derived from it. [ ]: non-standard residue; d: D form. pGlu = O=C1CC[C@@H](C(=O)O)N1
Key:
[1] = test system: hemi-anterior pituitaries of adult male rats; test: FSH release in vitro from incubated hemi-anterior pituitaries (RIA of medium); type: cell-based, rat; details: for FSH: n = 6
Method: (§1) After acclimatization for 5 or more days in the vivarium, male rats were killed by decapitation. Following removal of the posterior lobe, the anterior pituitary (AP) was bisected longitudinally, and each AP was incubated in a tube containing 0.5 ml Krebs-Ringer bicarbonate (5 mM ascorbic acid; pH 7.4) buffer (KRB) in an atmosphere of 95% O2 /5% CO2 in a Dubnoff shaker (50 cycles per min) for a period of 60 min. Following this pre-incubation period, the APs were incubated for 3 hr in fresh KRB buffer alone (control), or in KRB containing one of various concentrations of synthetic mammalian (m)-LHRH, l-LHRH-III, l-LHRH-I, chicken (c)-LHRH-II, or salmon (s)-LHRH. The medium was then aspirated, and was stored frozen at -20° C. until radio-immunoassays (RIA) for FSH and LH were conducted. FSH and LH were measured using kits supplied by the National Institute of Arthritis Digestive Diabetes and Kidney Disease; hormone values were expressed in terms of NIH-rFSH-RP-2 and NIH-rLH-RP-3 standards. The experiments were repeated twice. The inter- and intra-assay coefficients of variation for FSH assays were 7.5% and 5.2%, respectively; and were 6.5% and 4.8% for LH assays.

[2] = test system: hemi-anterior pituitaries of adult male rats; test: LH release in vitro from incubated hemi-anterior pituitaries (RIA of medium); type: cell-based, rat; details: for LH: n = 6
Method: as §1

[3] = test system: ovariectomized, estrogen- and progesterone-blocked female rats; test: FSH release in vivo after intravenous injection; design: species or system rat; details: for selectivity for FSH release in vivo, result in words: screen of known LHRH's and LHRH analogs, unpublished data; for Change in FSH from baseline, 10 minutes post-injection: saline control -3.85 ± 0.82
Method: (§2) Female rats were ovariectomized under anesthesia with isoflurane 4 weeks prior to the in vivo experiments. Three days before blood sampling, each ovariectomized rat was injected subcutaneously with 50 μg estradiol benzoate (Sigma Chemical Co., St. Louis, Mo.) dissolved in 0.1 ml sesame oil, and 25 mg progesterone (Eli Lilly, Indianapolis, Ind.) dissolved in 0.5 ml sesame oil. One day prior to testing, each animal was implanted with a jugular-atrial catheter. On the morning of testing, polyethylene tubing (PE-50) was connected to the distal end of the jugular-atrial catheter on the rat's dorsum to facilitate blood sampling and intravenous injection. Animals were acclimatized one hour before initial blood samples were taken. Heparinized blood samples ([…]) were collected just before, and at 10, 30, and 60 minutes after injection of 0.5 ml isotonic saline or l-LHRH-III (10 or 100 pmole) in 0.5 ml isotonic saline. After removal of each blood sample, an equal volume of isotonic saline was administered to maintain blood volume.

rats = details: Yu et al., 1990; cited from earlier work
[4] = test system: ovariectomized, estrogen- and progesterone-blocked female rats; test: LH release in vivo after intravenous injection; design: species or system rat; details: for Change in LH from baseline, 10 minutes post-injection: saline control -0.070 ± 0.122
Method: as §2

[5] = test system: Petromyzon marinus (lamprey) ovaries; details: Sower et al., 1993; cited from earlier work
[6] = Table 4 experiment, 10^-6 M, KRB control 157.5 ± 13.2
[7] = Table 4 experiment, 10^-7 M, KRB control 157.5 ± 13.2
[8] = Table 4 experiment, 10^-8 M, KRB control 157.5 ± 13.2
[9] = Table 5 experiment, 10^-6 M, KRB control 149.3 ± 17.0
[10] = Table 5 experiment, 10^-7 M, KRB control 149.3 ± 17.0
[11] = Table 5 experiment, 10^-8 M, KRB control 149.3 ± 17.0
[12] = Table 2, 10^-5 M, 3 hr incubation, KRB control 97.7 ± 20.4
[13] = Table 2, 10^-6 M, 3 hr incubation, KRB control 97.7 ± 20.4
[14] = Table 3, 10^-5 M, 3 hr incubation, KRB control 139.3 ± 16.9
[15] = Table 3, 10^-6 M, 3 hr incubation, KRB control 139.3 ± 16.9

NC(=O)CNC(=O)[C@@H]1CCCN1C(=O)[C@H](Cc1ccc(O)cc1)NC(=O)[C@H](Cc1c[nH]c2ccccc12)NC(=O)CNC(=O)[C@H](Cc1c[nH]cn1)NC(=O)[C@H](CO)NC(=O)[C@H](Cc1c[nH]c2ccccc12)NC(=O)[C@H](Cc1c[nH]cn1)NC(=O)[C@@H]1CCC(=O)N1 [c-LHRH-II, pGlu-His-Trp-Ser-His-G1y-Trp-Tyr-Pro-Gly-NH2] ([pGlu]HWSHGWYPG-NH2)
FSH release in vitro, result in words [1]: only significantly increased FSH release at the highest concentration tested (10^-6 M)
FSH [1, 6]: 263.7 ± 17.8 ng/mL
FSH [1, 7]: 209.3 ± 44.0 ng/mL
FSH [1, 8]: 123.7 ± 18.0 ng/mL
FSH release in vitro, result in words ([1]; listed as chicken LHRH-II): low potency, and lacked specificity for FSH release
LH release in vitro, result in words [2]: equivalent LH-releasing activity to that of m-LHRH
LH [2, 9]: 239.0 ± 31.7 ng/mL
LH [2, 10]: 216.3 ± 17.7 ng/mL
LH [2, 11]: 199.3 ± 13.6 ng/mL
LH release in vitro, result in words ([2]; listed as Chicken (c) LHRH-II): stimulated LH release at doses from 10^-8 to 10^-6 M
selectivity for FSH release in vivo, result in words [3]: slight selectivity for FSH release
selectivity for FSH release in vivo, result in words ([3]; listed as chicken (c) LHRH-II): slightly preferential FSH-releasing activity in vivo

CC(C)C[C@H](NC(=O)[C@H](CO)NC(=O)[C@H](Cc1ccc(O)cc1)NC(=O)[C@H](Cc1c[nH]cn1)NC(=O)[C@@H]1CCC(=O)N1)C(=O)N[C@@H](CCC(=O)O)C(=O)N[C@@H](Cc1c[nH]c2ccccc12)C(=O)N[C@@H](CCCCN)C(=O)N1CCC[C@H]1C(=O)NCC(N)=O [l-LHRH-I, pGlu-His-Tyr-Ser-Leu-Glu-Trp-Lys-Pro-Gly-NH2] ([pGlu]HYSLEWKPG-NH2)
FSH release in vitro, result in words [1]: minimal potency to release either FSH or LH; also recorded: small but statistically significant release of FSH at a concentration of 10^-5 M
FSH [1, 12]: 178.2 ± 17.0 ng/mL
FSH [1, 13]: 164.0 ± 29.3 ng/mL
LH release in vitro, result in words [2]: minimal potency to release either FSH or LH; also recorded: inactive at the two concentrations tested
LH [2, 14]: 120.4 ± 8.1 ng/mL
LH [2, 15]: 134.1 ± 23.2 ng/mL
activity in releasing FSH or LH in rats (rats): relatively low activity in releasing either FSH or LH

NCCCC[C@H](NC(=O)[C@H](Cc1c[nH]c2ccccc12)NC(=O)[C@H](CC(=O)O)NC(=O)[C@H](Cc1c[nH]cn1)NC(=O)[C@H](CO)NC(=O)[C@H](Cc1c[nH]c2ccccc12)NC(=O)[C@H](Cc1c[nH]cn1)NC(=O)[C@@H]1CCC(=O)N1)C(=O)N1CCC[C@H]1C(=O)NCC(N)=O [l-LHRH-III, pGlu-His-Trp-Ser-His-Asp-Trp-Lys-Pro-Gly-NH2]
FSH release in vitro, result in words [1]: approximately equipotent toward releasing FSH; also recorded: caused FSH release in a dose-related fashion
FSH ([1]; Table 2, 10^-4 M, 3 hr incubation, KRB control 97.7 ± 20.4): 368.6 ± 40.9 ng/mL
FSH [1, 12]: 283.0 ± 60.8 ng/mL
FSH [1, 13]: 278.2 ± 40.9 ng/mL
FSH ([1]; Table 2, 10^-7 M, 3 hr incubation, KRB control 97.7 ± 20.4): 213.0 ± 17.9 ng/mL
FSH ([1]; Table 2, 10^-8 M, 3 hr incubation, KRB control 97.7 ± 20.4): 255.7 ± 42.4 ng/mL
FSH ([1]; Table 2, 10^-9 M, 3 hr incubation, KRB control 97.7 ± 20.4): 228.3 ± 52.5 ng/mL
MEC for statistically significant FSH release relative to c-LHRH-II ([1]; Table 4 experiment): two orders of magnitude lower
FSH [1, 6]: 215.0 ± 38.0 ng/mL
FSH [1, 7]: 203.2 ± 16.4 ng/mL
FSH [1, 8]: 249.3 ± 31.3 ng/mL
FSH ([1]; Table 4 experiment, 10^-9 M, KRB control 157.5 ± 13.2): 196.3 ± 21.2 ng/mL
minimal effective concentration (MEC) for FSH release ([1]; lowest concentration tested 10^-9 M): ≤ 10^-9 M
concentration of maximal effect on FSH release ([1]; release levelled off through 10^-4 M): about 10^-6 M
LH ([2]; Table 3, 10^-4 M, 3 hr incubation, KRB control 139.3 ± 16.9): 236.6 ± 19.3 ng/mL
LH [2, 14]: 202.9 ± 31.2 ng/mL
LH [2, 15]: 233.6 ± 33.8 ng/mL
LH ([2]; Table 3, 10^-7 M, 3 hr incubation, KRB control 139.3 ± 16.9): 179.9 ± 28.4 ng/mL
LH ([2]; Table 3, 10^-8 M, 3 hr incubation, KRB control 139.3 ± 16.9): 165.7 ± 26.6 ng/mL
LH ([2]; Table 3, 10^-9 M, 3 hr incubation, KRB control 139.3 ± 16.9): 171.8 ± 27.3 ng/mL
LH [2, 9]: 176.0 ± 9.3 ng/mL
LH [2, 10]: 182.7 ± 13.7 ng/mL
LH [2, 11]: 163.2 ± 6.5 ng/mL
LH ([2]; Table 5 experiment, 10^-9 M, KRB control 149.3 ± 17.0): 158.7 ± 10.2 ng/mL
release of FSH versus LH in vivo, result in words ([3]; 10 pmole and 100 pmole): caused the release of FSH in vivo, but not LH
plasma FSH after injection versus saline control, result in words ([3]; 10 pmole intravenous): highly significant increase in plasma FSH 10 minutes after injection, an effect that vanished by 30 minutes post-injection; also recorded: increase in FSH in vivo (P<0.01) within ten minutes
Change in FSH from baseline, 10 minutes post-injection ([3]; 10 pmole intravenous, n = 6): -0.75 ± 0.37 ng/mL
plasma FSH after injection versus saline control, result in words ([3]; 100 pmole intravenous): slightly greater effect at 10 minutes that was maintained 30 minutes after injection
Change in FSH from baseline, 10 minutes post-injection ([3]; 100 pmole intravenous, n = 7): -0.43 ± 0.61 ng/mL
Change in LH from baseline, 10 minutes post-injection ([4]; 10 pmole intravenous, n = 6): -0.022 ± 0.078 ng/mL
plasma LH after injection versus saline control, result in words ([4]; 10 pmole or 100 pmole intravenous, 10, 30, 60 minutes): no significant increase in LH
Change in LH from baseline, 10 minutes post-injection ([4]; 100 pmole intravenous, n = 7): 0.097 ± 0.077 ng/mL
estradiol and progesterone release from ovaries [5]: stimulated estradiol and progesterone release

CC(C)C[C@H](NC(=O)CNC(=O)[C@H](Cc1ccc(O)cc1)NC(=O)[C@H](CO)NC(=O)[C@H](Cc1c[nH]c2ccccc12)NC(=O)[C@H](Cc1c[nH]cn1)NC(=O)[C@@H]1CCC(=O)N1)C(=O)N[C@@H](CCCNC(=N)N)C(=O)N1CCC[C@H]1C(=O)NCC(N)=O [m-LHRH, pGlu-His-Trp-Ser-Tyr-Gly-Leu-Arg-Pro-Gly-NH2]
FSH release in vitro, result in words [1]: approximately equipotent toward releasing FSH; also recorded: equivalent levels of FSH release at the two concentrations tested
FSH ([1]; Table 2, 2 × 10^-8 M, 3 hr incubation, KRB control 97.7 ± 20.4): 257.5 ± 42.4 ng/mL
FSH ([1]; Table 2, 4 × 10^-9 M, 3 hr incubation, KRB control 97.7 ± 20.4): 218.5 ± 35.7 ng/mL
FSH ([1]; Table 4 experiment, 2 × 10^-8 M, KRB control 157.5 ± 13.2): 320.5 ± 42.6 ng/mL
LH release in vitro, result in words [2]: dose-related stimulatory effect on LH release, and was active at the lowest concentration tested (4×10^-9 M)
LH ([2]; Table 3, 2 × 10^-8 M, 3 hr incubation, KRB control 139.3 ± 16.9): 262.0 ± 36.1 ng/mL
LH ([2]; Table 3, 4 × 10^-9 M, 3 hr incubation, KRB control 139.3 ± 16.9): 183.1 ± 27.0 ng/mL
LH ([2]; Table 5 experiment, 2 × 10^-8 M, KRB control 149.3 ± 17.0): 214.7 ± 30.3 ng/mL

CC(C)C[C@H](NC(=O)[C@H](Cc1c[nH]c2ccccc12)NC(=O)CNC(=O)[C@H](Cc1ccc(O)cc1)NC(=O)[C@H](CO)NC(=O)[C@H](Cc1c[nH]c2ccccc12)NC(=O)[C@H](Cc1c[nH]cn1)NC(=O)[C@@H]1CCC(=O)N1)C(=O)N1CCC[C@H]1C(=O)NCC(N)=O [s-LHRH, pGlu-His-Trp-Ser-Tyr-Gly-Trp-Leu-Pro-Gly-NH2] ([pGlu]HWSYGWLPG-NH2)
FSH [1, 6]: 203.2 ± 39.2 ng/mL
FSH [1, 7]: 233.0 ± 37.4 ng/mL
FSH release in vitro, result in words ([1]; listed as Salmon (s)-LHRH): stimulated the release of both FSH and LH
FSH release in vitro, result in words ([1]; listed as Salmon LHRH): low potency, and lacked specificity for FSH release
LH release in vitro, result in words [2]: stimulated the release of both FSH and LH
LH [2, 9]: 186.2 ± 13.6 ng/mL
LH [2, 10]: 230.8 ± 38.8 ng/mL

Source: patent US6300471A, “FSH-releasing peptides” (Board of Supervisors of Louisiana State University and …, priority 1998, dated 2001)
